Experimental data as given in ChEMBL document CHEMBL5375968, “Peptide TK-HR from the Skin of Chinese Folk Medicine Frog Hoplobatrachus Rugulosus Accelerates Wound Healing via the Activation of the Neurokinin-1 Receptor” (J Med Chem, 2023).
Calls of active or inactive are those of the source. The calls are words filed in the database; no cut-off is given here.

Assays:
Pseudomonas aeruginosa = experiment: Antimicrobial activity against Pseudomonas aeruginosa ATCC 27853 assessed as microbial growth inhibition at 100 uM; type: functional, organism-based
Neutrophil [1] = experiment: Induction of phagocytosis in BALB/c mouse neutrophils cultured with CFSE-labeled Escherichia coli ATCC 25922 at 10 uM pretreated for 1 hr followed by bacterial exposure measured after 1.5 hrs by fluorescence microscopy; type: functional, cell-based; conditions: time 2.5 hrs
Neutrophil [2] = experiment: Induction of phagocytosis in BALB/c mouse neutrophils cultured with CFSE-labeled Staphylococcus aureus ATCC 25923 at 10 uM pretreated for 1 hr followed by bacterial exposure measured after 1.5 hrs by fluorescence microscopy; type: functional, cell-based; conditions: time 2.5 hrs
RAW264.7 [3] = experiment: Induction of cell migration in mouse RAW264.7 cells incubated for 24 hrs by crystal violet staining based microscopy; type: functional; conditions: dose 5-20 µM
RAW264.7 [4] = experiment: Induction of phagocytosis in mouse RAW264.7 cells assessed as increase in neutral red dye uptake by measuring optical density at 540 nm at 2.5 uM incubated for 24 hrs followed by dye addition measured after 4 hrs by absorbance based assay (reference value: 0.073); type: functional; conditions: time 28 hrs
RAW264.7 [5] = experiment: Induction of phagocytosis in mouse RAW264.7 cells assessed as increase in neutral red dye uptake by measuring optical density at 540 nm at 20 uM incubated for 24 hrs followed by dye addition measured after 4 hrs by absorbance based assay (reference value: 0.073); type: functional; conditions: time 28 hrs
RAW264.7 [6] = experiment: Induction of phagocytosis in mouse RAW264.7 cells cultured with Escherichia coli ATCC 25922 assessed as number of engulfed bacteria at 10 uM incubated for 24 hrs followed by bacterial exposure measured after 1 hr by plate counting method (reference value: 225); type: functional; conditions: time 25 hrs
RAW264.7 [7] = experiment: (§1) Induction of phagocytosis in mouse RAW264.7 cells cultured with Escherichia coli ATCC 25922 assessed as number of surviving engulfed bacteria at 5 uM incubated for 24 hrs followed by bacterial exposure for 1 hr and further treated with gentamycin for 2 hrs by plate counting method (reference value: 37); type: functional
RAW264.7 [8] = experiment: as §1, with “at 20” for “at 5”; type: functional
RAW264.7 [9] = experiment: Induction of TNF-alpha expression in mouse RAW264.7 cells incubated for 24 hrs by ELISA; type: functional, cell-based; conditions: dose 2.5-20 µM
RAW264.7 [10] = experiment: Induction of MCP-1 expression in mouse RAW264.7 cells incubated for 24 hrs by ELISA; type: functional, cell-based; conditions: dose 2.5-20 µM
RAW264.7 [11] = experiment: Upregulation of phosphorylated p38 level in mouse RAW264.7 cells at 2.5 to 20 uM incubated for 4 hrs by Western blot analysis; type: functional, cell-based; conditions: dose 2.5-20 µM
RAW264.7 [12] = experiment: Upregulation of phosphorylated Smad2 level in mouse RAW264.7 cells at 2.5 to 20 uM incubated for 4 hrs by Western blot analysis; type: functional, cell-based; conditions: dose 2.5-20 µM
RAW264.7 [13] = experiment: Effect on total Smad2 level in mouse RAW264.7 cells at 2.5 to 20 uM incubated for 4 hrs by Western blot analysis; type: functional, cell-based; conditions: dose 2.5-20 µM
RAW264.7 [14] = experiment: Upregulation of phosphorylated p38 level in Aprepitant-treated mouse RAW264.7 cells at 2.5 to 20 uM incubated for 4 hrs by Western blot analysis; type: functional, cell-based; conditions: dose 2.5-20 µM
HaCaT = experiment: Induction of cell migration in Aprepitant-treated human HaCaT cells assessed as healing rate at 20 uM measured after 48 hrs by scratch healing assay (reference value: 63.1 %); type: functional
HUVEC [15] = experiment: Induction of cell migration in HUVEC cells assessed as formation of cytoplasmic protrusions at 20 uM measured after 24 hrs by immunofluorescence microscopy; type: functional, cell-based; conditions: Homo sapiens
HUVEC [16] = experiment: Induction of cell migration in HUVEC cells assessed as formation of filopodia extensions at 20 uM measured after 24 hrs by immunofluorescence microscopy; type: functional, cell-based; conditions: Homo sapiens
HUVEC [17] = experiment: Angiogenic activity in HUVEC cells assessed as increase in tube formation at 20 uM measured for 4 hrs by microscopic analysis relative to control; type: functional, Homo sapiens
Aorta [18] = experiment: Ex vivo angiogenic activity in C57BL/6 mouse aortic ring assessed as increase in sprouting by measuring vessel outgrowth area at 5 uM measured for 7 days by microscopic analysis relative to control; type: functional; conditions: time 7 day
Aorta [19] = experiment: Ex vivo angiogenic activity in C57BL/6 mouse aortic ring assessed as increase in sprouting by measuring vessel outgrowth area at 20 uM measured for 7 days by microscopic analysis relative to control; type: functional; conditions: time 7 day
[20] = Induction of wound healing in BALB/c mouse model of full-thickness wounds at 100 ug/ml, TOP bid measured after 4 days (reference value: 48.6 %); type: functional; conditions: dose 100 µg/ml, time 4 day
[21] = Toxicity in BALB/c mouse model of full-thickness wounds assessed as adverse effect on body weight at 50 to 200 ug/ml, TOP bid measured upto 8 days; conditions: in vivo, topical_or_ocular, 192 h, dose 50-200 µg/ml, time < 8 day
[22] = Toxicity in BALB/c mouse model of full-thickness wounds assessed as inflammatory foci in liver at 200 ug/ml, TOP bid measured upto 8 days by H and E staining based analysis; type: tissue-based; conditions: in vivo, topical_or_ocular, 192 h, dose 200 µg/ml, time < 8 day
[23] = Induction of wound healing in BALB/c mouse model of full-thickness wounds at 50 ug/ml, TOP bid pretreated with Aprepitant for 2 hrs followed by compound administration measured after 2 days (reference value: 35.3 %); type: functional; conditions: dose 50 µg/ml, time 2 day
[24] = Induction of wound healing in BALB/c mouse model of full-thickness wounds at 50 ug/ml, TOP bid pretreated with Aprepitant for 2 hrs followed by compound administration measured after 6 days (reference value: 69.3 %); type: functional; conditions: dose 50 µg/ml, time 6 day
Splenic fibroblast [25] = experiment: Effect on cell migration in human […] fibroblasts at 20 uM incubated upto 48 hrs by scratch healing assay; type: functional, cell-based
Splenic fibroblast [26] = experiment: Effect on TGF-1beta production in human […] fibroblasts at 5 to 40 uM incubated for 24 hrs by ELISA; type: functional, cell-based; conditions: dose 5-40 µM
Mus musculus [27] = species on record: Mus musculus; experiment: Induction of wound healing in BALB/c mouse model of full-thickness wounds assessed as dense arrangement of collagen fibers at 50 to 200 ug/ml, TOP bid measured after 8 days by Masson's Trichome staining based analysis; type: functional; conditions: dose 50-200 µg/ml, time 8.0 day
Mus musculus [28] = species on record: Mus musculus; experiment: Induction of wound healing in BALB/c mouse model of full-thickness wounds assessed as increase in TGF-1beta production in wound skin at 50 to 200 ug/ml, TOP bid measured after 2 to 4 days by ELISA; type: functional; conditions: dose 50-200 µg/ml, time 2-4 day
Mus musculus [29] = species on record: Mus musculus; experiment: Induction of wound healing in BALB/c mouse model of full-thickness wounds assessed as increase in ratio of phosphorylated Smad3 level to total Smad3 level in wound skin at 50 to 200 ug/ml, TOP bid measured after 8 days by Western blot analysis; type: functional; conditions: dose 50-200 µg/ml, time 8.0 day
Mus musculus [30] = species on record: Mus musculus; experiment: Induction of wound healing in BALB/c mouse model of full-thickness wounds assessed as increase in recruitment of M1-type macrophages in wound skin at 50 ug/ml, TOP bid measured after 2 days by IHC analysis; type: functional; conditions: dose 50.0 µg/ml, time 2.0 day
Mus musculus [31] = species on record: Mus musculus; experiment: Induction of wound healing in BALB/c mouse model of full-thickness wounds assessed as increase in TNF-alpha level in wound skin at 50 ug/ml, TOP bid measured after 2 days by ELISA; type: functional; conditions: dose 50.0 µg/ml, time 2.0 day

H-KPNPDRFYGLM-NH2
Activity (Pseudomonas aeruginosa): inactive
Activity (Neutrophil [1]): Active
Activity (Neutrophil [2]): Active
Activity (RAW264.7 [3]): Dose-Dependent Effect
OD (RAW264.7 [4]): 0.097
OD (RAW264.7 [5]): 0.109
Activity (RAW264.7 [6]): 338
Activity (RAW264.7 [7]): 29
Activity (RAW264.7 [8]): 20
Activity (RAW264.7 [9]): Dose-Dependent Effect
Activity (RAW264.7 [10]): Dose-Dependent Effect
Activity (RAW264.7 [11]): Active
Activity (RAW264.7 [12]): Active
Activity (RAW264.7 [13]): inactive
Activity (RAW264.7 [14]): inactive
Activity (HaCaT): 76.1%
Activity (HUVEC [15]): Active
Activity (HUVEC [16]): Active
Activity (HUVEC [17]): 181.4%
Activity (Aorta [18]): 77.6%
Activity (Aorta [19]): 193.8%
Activity [20]: 70.9%
Activity [21]: Non-Toxic
Activity [22]: Non-Toxic
Activity [23]: 38.7%
Activity [24]: 69.4%
Activity (Splenic fibroblast [25]): inactive
Activity (Splenic fibroblast [26]): inactive
Activity (Mus musculus [27]): Active
Activity (Mus musculus [28]): Active
Activity (Mus musculus [29]): inactive
Activity (Mus musculus [30]): Active
Activity (Mus musculus [31]): Active
